Experiments:
Type in all cases: in vivo
[1] = test system: gastric tumor cells (BGC823); test: Tumor inhibition in BGC823 tumor-bearing nude mice (Example 5, Table 8); settings: intratumoral injection once, 150 μl/mouse, 7th day
Text: The method for determining the effect of combined drug administration in animal experiments was Burgi method (Burgi Y. Pharmacology; Drug actions and reactions. Cancerres. 1978, 38(2), 284-285). The Burgi method was modified by Zhengjun JIN (Zhengjun JIN, Equal probability and curve and “Q50”, Journal of the Second Shanghai Medical College; 1981, 1, 75-86) with q calculated as: q=EA+B/(EA+EB−EA×EB). In the following examples of the present invention, the combinational pharmaceutical efficacies (drug efficacies) of drug A and drug B co-administration was determined by ratio q of actual pharmaceutical efficacy (drug efficacy)/theoretical pharmaceutical efficacy (drug efficacy) according to Zhengjun JIN method, as follows.
Nude mice were used as experimental subjects, and gastric tumor cells (BGC823) were used as modeling cells, 1×10^5 cells/mouse were injected into the right axilla subcutaneously for transplantation tumor modeling, and the average tumor volume of successfully modeled nude mice was 164.4 mm^3. The model animals were randomly divided into 14 groups, and the drugs according to the pharmacological constitutions in Table 8 were administered via intratumoral injection. Each group was dosed once with an injection volume of 150 μl/mouse; wherein the pharmaceutical compositions of groups 5, 11 were semi-fluid, the pharmaceutical compositions of other groups are liquid. On the 7th day after drug administration, the animals were euthanized, and after dissection, the tumor tissue was taken out to determine the tumor weight, and the tumor inhibition rate (r) was calculated relative to the negative control group. Further, the actual efficacy/expected efficacy ratio q of a drug could also be calculated according to the therapeutic effect (tumor inhibition rate).

[2] = test system: outer lateral muscle mass of the right leg; test: Local effect on normal muscle tissue, area of abnormal regions, nude mice
Protocol: The animals were euthanized on the 7th day after drug administration, and the specimens of the outer lateral muscle mass of the right leg from the nude mice were taken out by autopsy, and the areas of abnormal regions different from normal muscles, such as of necrosis and nodules, were measured after sectioning and washing.
Each group was dosed once with an injection volume of 100 μl/mouse by administering to the outer lateral muscle mass of the right leg. On the 7th day after drug administration, the animals were euthanized, and the specimens of the outer lateral muscle mass of the right leg were taken out after dissection to perform a general pathological analysis. The sections were measured for the area of abnormal regions that distinguished from normal muscle, such as necrosis and nodules.

[3] = test system: human pancreatic cancer cells (PANC-1); test: Tumor inhibition in PANC-1 tumor-bearing nude mice, administration volume study (Example 4, Table 6); settings: intratumoral once
Protocol: Nude mice were used as experimental subjects, and human pancreatic cancer cells (PANC-1) were used as modeling cells, 1×10^5 cells/mouse were injected into the right axilla subcutaneously for transplantation tumor modeling, and the average tumor volume of successfully modeled nude mice was 213.1 mm^3. The model animals were randomly divided into 16 groups, and the drugs were administered intratumorally according to the drug components and administration volumes in Table 6, and each group was administered once. The drugs in groups 1-12 were prepared according to the method of Example 1, wherein the inactivated probiotics were heat-inactivated Saccharomyces boulardii, the probiotic water-insoluble component particles were β-glucan particles, the probiotic water-soluble component was disrupted Saccharomyces boulardii supernatant component, and the mixture of the probiotic water-insoluble component particles and water-soluble component (abbreviated as probiotic component mixture) was disrupted Saccharomyces boulardii, preparation method used was the same as that of Example 3. On the 7th day after drug administration, the animals were euthanized, and the tumor tissues were taken out after dissection to determine the tumor weight, and the tumor inhibition rate (r) was calculated relative to the negative control group.

[4] = injection volume 20 ul, administration volume/tumor volume 0.09, 7th day
[5] = injection volume 50 ul, administration volume/tumor volume 0.23, 7th day
[6] = injection volume 100 ul, administration volume/tumor volume 0.47, 7th day

## O=c1[nH]cc(F)c(=O)[nH]1 [1% 5-fluorouracil, 5-fluorouracil]
[1]
  Tumor inhibition rate r: 41.4%
  Tumor weight (x ± s): 0.132 ± 0.069 g

## CCO [75% ethanol, ethanol]
[2]; dosed once into muscle 100 μl/mouse, 7th day (b197 experiment)
  Area of abnormal regions (necrosis, nodules): 32.24±13.71 mm^2
[2]; injection into muscle 100 ul/mouse, 7th day (b168 experiment)
  Areas of the abnormal regions (necrosis, nodules): 35.14±15.92 mm^2
[3]; [4]
  Tumor inhibition rate r: 6.2%
  Tumor weight (x ± s): 0.257 ± 0.110 g
[3]; [5]
  Tumor inhibition rate r: 20.3%
  Tumor weight (x ± s): 0.218 ± 0.115 g
[3]; [6]
  Tumor inhibition rate r: 31.7%
  Tumor weight (x ± s): 0.187 ± 0.064 g
